Data published in patent US4221789A, “Lactam-N-acetic acids and their amides” (UCB, Societe Anonyme, priority 1978, dated 1980).
Structures can show the parent of a compound that is named as a salt. Where two headings read alike, the source gives them in different places.

Columns and labels:
rat [1] = assay: active avoidance test (memory retention; paw withdrawal threshold); format: in vivo; conditions: for minimal effective dose: sc, read-out: Active dose
Description: (A) The action on mnemic processes is first shown by the ability of the compounds to improve a type of memory retention in the rat. The principle of the active avoidance test (see M. GREINDL and S. PREAT, Arch.Int. Pharmacodyn.Therap.223,(1976),(1),168-171) developed in our laboratories and used for this purpose, may be described as follows: the withdrawal reaction of a rat's paw when subjected to an increasing, quantified pressure is observed. The pressure at which the withdrawal reaction is produced, is called the reaction threshold. This threshold is expressed by the number of graduations of the scale of the apparatus used (Analgesymeter Ugo Basile, Milan) and thus corresponds to the minimum pressure which brings about withdrawal when applied to the animal's paw. It is read off directly on the scale of the apparatus used.
Inversely, animals treated with a substance having a positive effect on the mnemic processes (such as piracetam) show a significant degree of retention: the stimulus to which the rats react by a reflex of avoidance is statistically lower than that of the control animals. A minimum of 20 rats per test are used (10 treated rats and 10 control rats) and the active dose is defined as the minimum dose lowering the stimulus to below 11 graduations.

rat [2] = assay: reduction of the spinal fixation time; format: in vivo; conditions: for minimal effective dose: ip, 35 min, read-out: Active dose
Description: (B) The action on the mnemic processes is also shown by the reduction of the spinal fixation time, a test which has been described in literature (see C. GIURGEA and F. MOURAVIEFF-LESUISSE, Arch.Int.Pharmacodyn.191,(1971,No. 2), 279) as an elementary model of memory and which provides pharmacological reactivity in good correlation with clinical physiopathology. In the rat, after unilateral lesion of the cerebellum, there is a postural asymmetry of the hind paws. This asymmetry may-persist, even after spinal section, if the animal has passed a sufficient period of time in this position. This time, which is called the spinal fixation time, is 45 minutes under the experimental conditions applied here.
On the other hand, if spinal section is performed before the expiry of this period of time, for example 35 minutes after the onset of asymmetry, the latter disappears.
Inversely, any product which allows the rats to retain the asymmetry (thus effecting spinal fixation), when the spinal section is performed after 35 minutes, is considered to be active.
By "number of animals" is to be understood the number of animals which responded positively to the test in relation to the number of animals tested at the dose indicated: […]

mice = assay: toxicity in mice, intraperitoneal (Irwin's test); format: in vivo
Description: The compounds of formula I have a remarkably low toxicity.
*Dose which brings about the death of one animal out of three in Irwin's
test (S. IRWIN, Gordon Research Conference on Medicinal Chemistry, Colby
Junior College, New London, 1959).

[3] = test system: papillary muscle isolated from the cat's heart; assay: "papillary muscle" test (inotropic activity); conditions: for activation at 10 µg/kg, 0.01 mg/kg: Felis catus, read-out: increase of the strength of muscular contraction
Procedure: The method used is that of M. K. CATTELL and H. GOLD (J.Pharmacol.Exptl. Therap.62, (1938), 116-125). The experiment is carried out on a papillary muscle isolated from the cat's heart and dipped in a physiological salt solution to which the compound to be tested is added.

[4] = toxicity in the rat, intravenous or oral (LD 50); conditions: in vivo
Description: Furthermore, when administered intravenously (i.v.) or orally in the rat, the compounds also have a low toxicity, as indicated in the following Table: […]

[5] = rat, intraperitoneal, spinal section after 35 minutes
[6] = rat, intraperitoneal, 0.2 mmol/kg, spinal section after 35 minutes
[7] = rat, subcutaneous, minimum dose lowering the stimulus to below 11 graduations, tested 24 hours later
[8] = rat, intraperitoneal, 0.1 mmol/kg, spinal section after 35 minutes

SMILES | minimal effective dose (rat [1]; Rattus norvegicus, 24 h) [µmol/kg] | Dose which brings about the death of one animal out of three in Irwin's test (mice; mouse, in vivo, ip) [mg/kg] | Dose which brings about the death of one animal out of three in Irwin's test (mice; mice, intraperitoneal) [mg/kg] | further results
NC(=O)CN1CCCC1=O [Compound A, 2-oxo-1-pyrrolidineacetamide, reference compound] | 25 |  |  | minimal effective dose (rat [2]; [5]): 200 µmol/kg; Number of animals which responded positively / number tested (rat [2]; [6]): 4/9
CCC(C(N)=O)N1CCCC1=O (stereo not drawn) [Compound B, alpha-ethyl-2-oxo-1-pyrrolidineacetamide, reference compound] | 5 |  |  | minimal effective dose (rat [2]; [5]): 200 µmol/kg; Number of animals which responded positively / number tested (rat [2]; [6]): 7/22
O=C(O)CN1CCCC1=O [Compound C, 2-oxo-1-pyrrolidineacetic acid, reference compound] |  |  |  | activity in the active avoidance test (rat [1]; rat, subcutaneous, at the dose of 0.1 mmol/kg): inactive; minimal effective dose (rat [2]; [5]): 320 µmol/kg; Number of animals which responded positively / number tested (rat [2]; rat, intraperitoneal, 0.32 mmol/kg, spinal section after 35 minutes): 2/4
O=C(O)C(O)N1CCCC1=O (stereo not drawn) [Example 2, alpha-Hydroxy-2-oxo-1-pyrrolidineacetic acid (dicyclohexylamine salt)] |  | > 102 |  | minimal effective dose (rat [1]; [7]): 5 µmol/kg; minimal effective dose (rat [2]; [5]): 100 µmol/kg; Number of animals which responded positively / number tested (rat [2]; [8]): 4/7
O=C(O)C(CCO)N1CCCC1=O (stereo not drawn) [Example 3, alpha-(2-Hydroxyethyl)-2-oxo-1-pyrrolidineacetic acid] |  | > 1222 |  | minimal effective dose (rat [2]; [5]): 100 µmol/kg; Number of animals which responded positively / number tested (rat [2]; [8]): 4/7
NC(=O)C(CCO)N1CCCC1=O (stereo not drawn) [Example 4.1, alpha-(2-Hydroxyethyl)-2-oxo-1-pyrrolidineacetamide] | 2 |  | > 1116 | activation at 10 µg/kg, 0.01 mg/kg [3]: 7%; inotropic activity ([3]; isolated cat papillary muscle, comparison with caffeine): superior to that of caffeine; LD50 ([4]; iv): > 4000 mg/kg; LD50 ([4]; po, orally): > 10000 mg/kg; minimal effective dose (rat [2]; Rattus norvegicus): 100 µmol/kg; Number of animals which responded positively / number tested (rat [2]; [8]): 3/7
CC1CCN(C(CCO)C(N)=O)C1=O (stereo not drawn) [Example 4.2, alpha-(2-Hydroxyethyl)-3-methyl-2-oxo-1-pyrrolidineacetamide] |  |  | > 1200 | 
CC1CC(C)N(C(CCO)C(N)=O)C1=O (stereo not drawn) [Example 4.3, alpha-(2-Hydroxyethyl)-3,5-dimethyl-2-oxo-1-pyrrolidineacetamide] |  |  | > 1286 | 
CCCCC1CCN(C(CCO)C(N)=O)C1=O (stereo not drawn) [Example 4.4, 3-n-Butyl-alpha-(2-hydroxyethyl)-2-oxo-1-pyrrolidineacetamide] |  | > 1452 |  | 
NC(=O)C(CCO)N1CC(c2ccc(Cl)cc2)C(c2ccccc2)C1=O (stereo not drawn) [Example 4.5, 4-p-Chlorophenyl-alpha-(2-hydroxyethyl)-3-phenyl-2-oxo-1-pyrrolidineacetamide] |  | > 224 |  | 
CCCCNC(=O)C(CCO)N1CCCC1=O (stereo not drawn) [Example 5.1, N-n-Butyl-alpha-(2-hydroxyethyl)-2-oxo-1-pyrrolidineacetamide] |  |  | > 1452 | 
O=C(NC1CCCCC1)C(CCO)N1CCCC1=O (stereo not drawn) [Example 5.2, N-Cyclohexyl-alpha-(2-hydroxyethyl)-2-oxo-1-pyrrolidineacetamide] |  | > 1608 |  | 
CCN(CC)C(=O)C(CCO)N1CCCC1=O (stereo not drawn) [Example 5.3, N,N-Diethyl-alpha-(2-hydroxyethyl)-2-oxo-1-pyrrolidineacetamide] | 0.2 |  | > 1452 | 
CC(C)NC(=O)C(CCO)N1CCCC1=O (stereo not drawn) [Example 5.4, alpha-(2-Hydroxyethyl)-N-isopropyl-2-oxo-1-pyrrolidineacetamide] |  |  | > 1368 | 
O=C(C(CCO)N1CCCC1=O)N1CCOCC1 (centres unmarked) [Example 6.1, 4-[4-Hydroxy-2-(2-oxo-1-pyrrolidinyl)butyryl]-morpholine] | 0.2 |  | > 1536 | 
O=C(C(CCO)N1CCCC1=O)N1CCCCC1 (centres unmarked) [Example 6.2, 1-[4-Hydroxy-2-(2-oxo-1-pyrrolidinyl)butyryl]-piperidine] |  |  | > 1524 | 
CCCNC(=O)C(CCO)N1CCCC1=O (stereo not drawn) [Example 6.3, alpha-(2-Hydroxyethyl)-N-propyl-2-oxo-1-pyrrolidineacetamide] | 0.1 |  | > 1368 | 
O=C(C(CCO)N1CCCC1=O)N1CCN(Cc2ccccc2)CC1 (centres unmarked) [Example 6.4, 1-Benzyl-4-[4-hydroxy-2-(2-oxo-1-pyrrolidinyl)butyryl]-piperazine] |  | > 345 |  | minimal effective dose (rat [1]; [7]): 1 µmol/kg
O=C(NC1CCCC1)C(CCO)N1CCCC1=O (stereo not drawn) [Example 6.5, N-cyclopentyl-alpha-(2-hydroxyethyl)-2-oxo-1-pyrrolidineacetamide] |  | > 762 |  | minimal effective dose (rat [1]; [7]): 0.2 µmol/kg
O=C(NCc1ccccc1)C(CCO)N1CCCC1=O (stereo not drawn) [Example 6.6, N-Benzyl-alpha-(2-hydroxyethyl)-2-oxo-1-pyrrolidineacetamide] | 2 |  | 822 | minimal effective dose (rat [2]; Rattus norvegicus): 100 µmol/kg; Number of animals which responded positively / number tested (rat [2]; [8]): 3/7
Cn1c(=O)c2c(ncn2C)n(C)c1=O [caffeine, reference compound] |  |  |  | activation at 10 µg/kg, 0.01 mg/kg ([3]; isolated cat papillary muscle, at the dose of 10 μg/kg): 4%
